Laboratory results published in ChEMBL document CHEMBL1124550, “Replacement of the 3'-CH group by nitrogen in the carbocyclic analogue of thymidine” (J Med Chem, 1989).

Columns and labels:
[1] = tested on: Human immunodeficiency virus 1; experiment: Antiviral activity against Human immunodeficiency virus 1 (HIV-1) up to 100 uM concentration; inactive; assay type: functional, organism-based
MCF7 = experiment: Antitumor activity against breast carcinoma cell line (MCF-7M); assay type: functional, cell-based; conditions: Homo sapiens
Human alphaherpesvirus 1 = experiment: Antiviral activity against Herpes simplex virus type 1 (HSV-1) up to 100 uM concentration; inactive; assay type: functional, organism-based
HT-29 = experiment: Antitumor activity against colon carcinoma cell line (HT-29); assay type: functional, cell-based; conditions: Homo sapiens
SK-MES-1 = experiment: Antitumor activity against lung carcinoma cell line (SK-MES-1); assay type: functional, cell-based; conditions: Homo sapiens

SMILES | IC50 [1] | IC50 (MCF7) [nM] | IC50 (Human alphaherpesvirus 1) | IC50 (HT-29) [nM] | IC50 (SK-MES-1) [nM]
Cc1cn([C@@H]2C[C@H](CO)N(O)C2)c(=O)[nH]c1=O | Not Active | 80 | Not Active | 14000 | 6910
Cc1cn([C@@H]2C[C@H](CO)N(N=O)C2)c(=O)[nH]c1=O | Not Active | – | Not Active | – | –
Cc1cn(C2CNC(CO)C2)c(=O)[nH]c1=O (centres undefined) | Not Active | – | Not Active | – | –
COC(=O)N1CC(n2cc(C)c(=O)[nH]c2=O)C[C@H]1CO (some centres undefined) | Not Active | – | Not Active | – | –
Cc1cn(C2C[C@@H](CO)N(C=O)C2)c(=O)[nH]c1=O (some centres undefined) | Not Active | – | Not Active | – | –
Cc1cn(C2C[C@@H](CO)N(CCC#N)C2)c(=O)[nH]c1=O (some centres undefined) | Not Active | – | Not Active | – | –
Cc1cn(C2C[C@@H](CO)N(C#N)C2)c(=O)[nH]c1=O (some centres undefined) | Not Active | – | Not Active | – | –
O=c1[nH]cc(F)c(=O)[nH]1 [FLUOROURACIL] | – | – | – | 150 | 310
